Consider one molecule from ChEMBL document CHEMBL4387717, “Structure guided drug design to develop kallikrein 5 inhibitors to treat Netherton syndrome” (Bioorg Med Chem Lett, 2019).

What is called solubility is how much of the substance goes into solution per volume.

One data set addresses T1, Kallikrein-5 (Homo sapiens, UniProt Q9Y337).
T1 sequence (Q9Y337 whole entry): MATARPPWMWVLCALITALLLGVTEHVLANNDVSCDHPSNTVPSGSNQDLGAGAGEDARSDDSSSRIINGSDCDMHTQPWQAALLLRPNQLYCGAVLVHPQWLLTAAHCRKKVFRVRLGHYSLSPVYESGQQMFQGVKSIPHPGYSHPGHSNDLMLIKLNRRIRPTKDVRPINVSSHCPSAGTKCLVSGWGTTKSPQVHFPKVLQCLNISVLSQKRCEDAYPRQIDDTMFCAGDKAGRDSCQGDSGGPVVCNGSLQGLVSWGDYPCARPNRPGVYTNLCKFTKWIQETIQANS
As to the kind of experiment: Inhibition of recombinant 6His-Q-FLAG tagged human KLK5 expressed in baculovirus infected Sf9 insect cells using (Tos-Gly-Pro-Arg)2[R110].2TFA as substrate measured at 30 secs interval for 5 mins by fluorescence intensity assay. As to conditions: read-out: pIC50 (converted).

Data set [1] concerns the target T2, Suppressor of tumorigenicity 14 protein (Homo sapiens, UniProt Q9Y5Y6).
T2 sequence (Q9Y5Y6 whole entry): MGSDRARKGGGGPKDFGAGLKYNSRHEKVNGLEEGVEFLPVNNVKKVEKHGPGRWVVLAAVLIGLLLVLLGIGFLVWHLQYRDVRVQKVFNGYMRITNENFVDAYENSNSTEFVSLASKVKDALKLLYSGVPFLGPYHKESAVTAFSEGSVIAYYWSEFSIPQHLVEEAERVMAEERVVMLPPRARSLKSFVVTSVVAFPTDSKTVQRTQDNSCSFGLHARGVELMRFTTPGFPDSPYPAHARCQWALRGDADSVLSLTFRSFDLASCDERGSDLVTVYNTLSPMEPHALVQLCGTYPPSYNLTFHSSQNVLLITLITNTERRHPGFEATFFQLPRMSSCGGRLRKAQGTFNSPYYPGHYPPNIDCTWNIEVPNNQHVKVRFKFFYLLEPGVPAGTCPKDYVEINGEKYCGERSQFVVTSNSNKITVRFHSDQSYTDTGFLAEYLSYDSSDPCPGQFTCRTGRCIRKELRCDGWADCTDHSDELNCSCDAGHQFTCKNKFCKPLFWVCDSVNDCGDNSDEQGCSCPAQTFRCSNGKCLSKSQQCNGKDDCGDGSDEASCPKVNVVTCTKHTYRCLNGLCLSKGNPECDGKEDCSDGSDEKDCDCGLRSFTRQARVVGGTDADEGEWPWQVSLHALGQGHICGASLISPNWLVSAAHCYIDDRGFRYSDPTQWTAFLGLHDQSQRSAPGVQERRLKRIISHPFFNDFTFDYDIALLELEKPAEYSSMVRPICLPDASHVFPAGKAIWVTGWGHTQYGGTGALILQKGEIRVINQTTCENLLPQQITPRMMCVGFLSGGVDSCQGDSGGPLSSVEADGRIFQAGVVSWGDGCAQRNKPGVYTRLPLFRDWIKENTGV
As to the kind of experiment: Inhibition of recombinant human N-terminal met-His6-tagged matriptase catalytic domain (Gly596 to Val855 residues) expressed in Escherichia coli using Boc-QAR-AMC as substrate after 40 mins by fluorescence intensity assay.

Data set [2] is filed under the species Homo sapiens. Kind of data set: Selectivity index, ratio of compound effect for inhibition of recombinant C-terminal 10-His tagged human KLK7 (Glu23 to His252 residues) expressed in mouse NS0 cells to compound effect for inhibition of recombinant 6His-Q-FLAG tagged human KLK5 expressed in baculovirus infected insect Sf9 cells.
The species entered for data set [3] is Homo sapiens. As to the kind of experiment: Selectivity index, ratio of compound effect for inhibition of recombinant C-terminal 10-His tagged human thrombin (Met1 to Glu622 residues) expressed in mouse NS0 cells to compound effect for inhibition of recombinant 6His-Q-FLAG tagged human KLK5 expressed in baculovirus infected insect Sf9 cells.
The species named for data set [4] is Homo sapiens. As to the kind of experiment: Selectivity index, ratio of compound effect for inhibition of recombinant C-terminal 10-His tagged human KLK8 (Gln29 to Gly260 residues) expressed in mouse NS0 cells to compound effect for inhibition of recombinant 6His-Q-FLAG tagged human KLK5 expressed in baculovirus infected insect Sf9 cells.
A short description of data set [5]: Solubility of the compound in water at 24 hrs. It is filed as physicochemical.
The nature of data set [6]: Solubility of the compound in pH 4 Britton-Robinson buffer at 24 hrs. It is filed as physicochemical. As to conditions: Britton-Robinson buffer, pH 4.
A short description of data set [7]: Solubility of the compound in pH 8 Britton-Robinson buffer at 24 hrs. It counts as physicochemical.
Data set [8] can be described thus: Absorption property in methanol assessed as molar extinction co-efficient by UV-spectra analysis. It is filed as physicochemical.

≈ marks a conversion by molar mass, not a printed value.

For `N=C(N)c1ccc(NCc2nc(-c3ccccc3)c[nH]2)cc1OCc1cccnc1`, the IC50 at Kallikrein-5 is 0.0794 µM; in data set [1] it was 25.1 µM. The Selectivity Index in the data set listed under Homo sapiens [2] is over 100; in the data set listed under Homo sapiens [3], over 100; in the data set listed under Homo sapiens [4], 10. Also, the solubility at 24 h in data set [5] stood at 1000 µg/mL (≈ 2510 µM); in data set [6] it was 1000 µg/mL (≈ 2510 µM); in data set [7], 180 µg/mL (≈ 452 µM). In data set [8], the Activity was over 1000 a.u.L/mol.cm.
